Reference: ChEMBL document CHEMBL1135139, “Solid-phase synthesis of thrombin inhibitors” (Bioorg Med Chem Lett, 2002)

Target: Prothrombin (Homo sapiens, UniProt P00734)
Assay: In vitro Inhibitory concentration against Thrombin

- IC50: 3.6 nM
SMILES: N=C(N)c1ccc(CNC(=O)[C@@H]2C=CCN2C(=O)[C@@H](CC2CCCCC2)NCC(=O)O)s1
